Measurements published in patent US20160060260A1, “BROMODOMAIN INHIBITORS FOR TREATING DISEASE” (Board of Regents, The University of Texas System, priority 2014, published 2016).

What follows are compounds tested against T1, Recombinant human His-tagged Trim24-PHD-bromodomain (Homo sapiens, UniProt O15164) (assay: Trim24 AlphaScreen Assay). Settings: 5 nM Trim24 protein, 15 nM biotinylated H3K23ac (1-33aa) peptide.
T1 construct: Recombinant human His-tagged Trim24-PHD-bromodomain (produced in-house); made in house
T1 sequence (O15164 824-1006 limits assumed): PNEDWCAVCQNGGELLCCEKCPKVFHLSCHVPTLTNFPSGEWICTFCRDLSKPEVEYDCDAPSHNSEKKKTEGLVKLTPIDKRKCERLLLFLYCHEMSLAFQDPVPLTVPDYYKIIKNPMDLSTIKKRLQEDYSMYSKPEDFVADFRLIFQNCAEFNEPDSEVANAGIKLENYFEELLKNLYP
Type: binding
In short: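 His-tagged Trim24-PHD-bromodomain, biotinylated H3K23ac (1-33aa) peptide and compound incubated 1 h at room temperature in 50 mM Hepes pH 7.5, 100 mM NaCl, 0.12 mM Triton X-100.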
For `COCCCn1cnc(S(=O)(=O)Nc2cc3c(cc2Oc2cccc(OCC(F)(F)F)c2)n(C)c(=O)n3C)c1` [Example 96, N-(1,3-dimethyl-2-oxo-6-(3-(2,2,2-trifluoroethoxy)phenoxy)-2,3-dihydro-1H-benzo[d]imidazol-5-yl)-1-(3-methoxypropyl)-1H-imidazole-4-sulfonamide], the IC50 was 10 to 100 nM.
With `CCCOc1cc(OCCCOC)cc(Oc2cc3c(cc2NS(=O)(=O)c2cccc(C(C)C)c2)n(C)c(=O)n3C)c1` [Example 164, 3-isopropyl-N-(6-(3-(3-methoxypropoxy)-5-propoxyphenoxy)-1,3-dimethyl-2-oxo-2,3-dihydro-1H-benzo[d]imidazol-5-yl)benzenesulfonamide] the IC50 was 100 to 1000 nM.
`CCCOc1cc(OCCCOC)cc(Oc2cc3c(cc2NS(=O)(=O)c2cccc(C#N)c2)n(C)c(=O)n3C)c1` [Example 165, 3-cyano-N-(6-(3-(3-methoxypropoxy)-5-propoxyphenoxy)-1,3-dimethyl-2-oxo-2,3-dihydro-1H-benzo[d]imidazol-5-yl)benzenesulfonamide] showed an IC50 of 10 to 100 nM.
In the case of `CCCOc1cc(OCCCCN)cc(Oc2cc3c(cc2NS(=O)(=O)c2cn(C)c(C)n2)n(C)c(=O)n3C)c1` [Example 214], the IC50 is reported as 10 to 100 nM.
Compound `CCCOc1cc(OCCCOC)cc(Oc2cc3c(cc2NS(=O)(=O)c2ccc(OC)c(NC(C)=O)c2)n(C)c(=O)n3C)c1` [Example 159, N-(2-methoxy-5-(N-(6-(3-(3-methoxypropoxy)-5-propoxyphenoxy)-1,3-dimethyl-2-oxo-2,3-dihydro-1H-benzo[d]imidazol-5-yl)sulfamoyl)phenyl)acetamide] has an IC50 of 10 to 100 nM.
For `CCCOc1cc(OCCCOC)cc(Oc2cc3c(cc2NS(=O)(=O)c2cnn(CC)c2)n(C)c(=O)n3C)c1` [Example 207, 1-ethyl-N-(6-(3-(3-methoxypropoxy)-5-propoxyphenoxy)-1,3-dimethyl-2-oxo-2,3-dihydro-1H-benzo[d]imidazol-5-yl)-1H-pyrazole-4-sulfonamide], the IC50 was 10 to 100 nM.
With `CCc1cccc(S(=O)(=O)Nc2cc3c(cc2Oc2cccc(OCc4ccccc4)c2)n(C)c(=O)n3C)c1` [Example 33, N-(6-(3-(benzyloxy)phenoxy)-1,3-dimethyl-2-oxo-2,3-dihydro-1H-benzo[d]imidazol-5-yl)-3-ethylbenzenesulfonamide] the IC50 was > 1000 nM.
`Cc1cccc(S(=O)(=O)Nc2cc3c(cc2Oc2cccc(OCc4ccccc4)c2)n(C)c(=O)n3C)c1` [Example 34, N-(6-(3-(benzyloxy)phenoxy)-1,3-dimethyl-2-oxo-2,3-dihydro-1H-benzo[d]imidazol-5-yl)-3-methylbenzenesulfonamide] gave an IC50 of 100 to 1000 nM.
With `CCCOc1ccc(F)c(Oc2cc3c(cc2NS(=O)(=O)c2ccc(OC)c(OC)c2)n(C)c(=O)n3C)c1` [Example 134, N-(6-(2-fluoro-5-propoxyphenoxy)-1,3-dimethyl-2-oxo-2,3-dihydro-1H-benzo[d]imidazol-5-yl)-3,4-dimethoxybenzenesulfonamide] the IC50 was 10 to 100 nM.
With `CCCOc1cc(OCCCCCCO)cc(Oc2cc3c(cc2NS(=O)(=O)c2cnn(C)c2C)n(C)c(=O)n3C)c1` [Example 178, N-(6-(3-((6-hydroxyhexyl)oxy)-5-propoxyphenoxy)-1,3-dimethyl-2-oxo-2,3-dihydro-1H-benzo[d]imidazol-5-yl)-1,5-dimethyl-1H-pyrazole-4-sulfonamide] the IC50 was 10 to 100 nM.
With `CCCOc1cccc(Oc2cc3c(cc2NS(=O)(=O)c2ccc(OC)cc2)n(C)c(=O)n3C)c1` [Example 171, N-(1,3-dimethyl-2-oxo-6-(3-propoxyphenoxy)-2,3-dihydro-1H-benzo[d]imidazol-5-yl)-4-methoxybenzenesulfonamide] the IC50 was 100 to 1000 nM.
For `CCCOc1cc(OCCCOC)cc(Oc2cc3c(cc2NS(=O)(=O)c2ccccc2)n(C)c(=O)n3C)c1` [Example 163, N-(6-(3-(3-methoxypropoxy)-5-propoxyphenoxy)-1,3-dimethyl-2-oxo-2,3-dihydro-1H-benzo[d]imidazol-5-yl)benzenesulfonamide], the IC50 was 100 to 1000 nM.
Compound `Cc1cc(OCC(C)C)cc(Oc2cc3c(cc2NS(=O)(=O)c2cn(C)cn2)n(C)c(=O)n3C)c1` [Example 222, N-(6-(3-isobutoxy-5-methylphenoxy)-1,3-dimethyl-2-oxo-2,3-dihydro-1H-benzo[d]imidazol-5-yl)-1-methyl-1H-imidazole-4-sulfonamide] has an IC50 of 10 to 100 nM.
With `Cn1c(=O)n(C)c2cc(Oc3cccc(OCc4ccccc4)c3)c(NS(C)(=O)=O)cc21` [Example 11] the IC50 was > 1000 nM.
With `CNCC(C)(O)COc1cccc(Oc2cc3c(cc2NS(=O)(=O)c2cn(C)cn2)n(C)c(=O)n3C)c1` (stereo not drawn) [Example 235, N-(6-{3-[2-hydroxy-2-methyl-3-(methylamino)propoxy]phenoxy}-1,3-dimethyl-2-oxo-2,3-dihydro-1H-1,3-benzodiazol-5-yl)-1-methyl-1H-imidazole-4-sulfonamide] the IC50 was > 1000 nM.
In the case of `Cn1c(=O)n(C)c2cc(Oc3cccc(OCc4ccccc4)c3)c(NS(=O)(=O)c3cn[nH]c3)cc21` [Example 51, N-(6-(3-(benzyloxy)phenoxy)-1,3-dimethyl-2-oxo-2,3-dihydro-1H-benzo[d]imidazol-5-yl)-1H-pyrazole-4-sulfonamide], the IC50 is reported as 100 to 1000 nM.
Work on `Cn1cnc(S(=O)(=O)Nc2cc3c(cc2Oc2cccc(OCC4(C)CO4)c2)n(C)c(=O)n3C)c1` (stereo not drawn) [Example 236, N-(1,3-dimethyl-6-(3-((2-methyloxiran-2-yl)methoxy)phenoxy)-2-oxo-2,3-dihydro-1H-benzo[d]imidazol-5-yl)-1-methyl-1H-imidazole-4-sulfonamide] yielded an IC50 of 100 to 1000 nM.
For `Cn1ccnc1S(=O)(=O)Nc1cc2c(cc1Oc1cccc(OCc3ccccc3)c1)n(C)c(=O)n2C` [Example 80, N-(6-(3-(benzyloxy)phenoxy)-1,3-dimethyl-2-oxo-2,3-dihydro-1H-benzo[d]imidazol-5-yl)-1-methyl-1H-imidazole-2-sulfonamide], the IC50 was > 1000 nM.
For `CCCOc1cccc(Oc2cc3c(cc2NS(=O)(=O)c2cn(C)c(C)n2)n(C)c(=O)n3C)c1` [Example 61, N-(1,3-dimethyl-2-oxo-6-(3-propoxyphenoxy)-2,3-dihydro-1H-benzo[d]imidazol-5-yl)-1,2-dimethyl-1H-imidazole-4-sulfonamide], the IC50 was 10 to 100 nM.
In the case of `CCCOc1cccc(Oc2cc3c(cc2NS(=O)(=O)c2cn(C)cn2)n(C)c(=O)n3C)c1` [Example 83, N-(1,3-dimethyl-2-oxo-6-(3-propoxyphenoxy)-2,3-dihydro-1H-benzo[d]imidazol-5-yl)-1-methyl-1H-imidazole-4-sulfonamide], the IC50 is reported as 10 to 100 nM.
Compound `Cc1nc(S(=O)(=O)Nc2cc3c(cc2Oc2cccc(OCCCO)c2)n(C)c(=O)n3C)cn1C` [Example 55, N-(6-(3-(3-hydroxypropoxy)phenoxy)-1,3-dimethyl-2-oxo-2,3-dihydro-1H-benzo[d]imidazol-5-yl)-1,2-dimethyl-1H-imidazole-4-sulfonamide] has an IC50 of 100 to 1000 nM.
`CCCOc1cc(Oc2cc3c(cc2NS(=O)(=O)c2cn(C)cn2)n(C)c(=O)n3C)ccc1OC` [Example 114, N-(6-(4-methoxy-5-propoxyphenoxy)-1,3-dimethyl-2-oxo-2,3-dihydro-1H-benzo[d]imidazol-5-yl)-1-methyl-1H-imidazole-4-sulfonamide] was tested, and the IC50 was > 1000 nM.
Compound `CCCOc1cccc(Oc2cc3c(cc2NS(=O)(=O)c2cnn(C)c2)n(C)c(=O)n3C)c1` [Example 75, N-(1,3-dimethyl-2-oxo-6-(3-propoxyphenoxy)-2,3-dihydro-1H-benzo[d]imidazol-5-yl)-1-methyl-1H-pyrazole-4-sulfonamide] has an IC50 of 10 to 100 nM.
Work on `COCCCOc1cc(OCCCOC)cc(Oc2cc3c(cc2NS(=O)(=O)c2cn(C)c(C)n2)n(C)c(=O)n3C)c1` [Example 123, N-(6-(3,5-bis(3-methoxypropoxy)phenoxy)-1,3-dimethyl-2-oxo-2,3-dihydro-1H-benzo[d]imidazol-5-yl)-1,2-dimethyl-1H-imidazole-4-sulfonamide] yielded an IC50 of 10 to 100 nM.
For `CCCOc1cc(OCCCOC)cc(Oc2cc3c(cc2NS(=O)(=O)c2ccccn2)n(C)c(=O)n3C)c1` [Example 158, N-(6-(3-(3-methoxypropoxy)-5-propoxyphenoxy)-1,3-dimethyl-2-oxo-2,3-dihydro-1H-benzo[d]imidazol-5-yl)pyridine-2-sulfonamide], the IC50 was 10 to 100 nM.
Compound `CCCOc1cc(OCCCOC)cc(Oc2cc3c(cc2NS(=O)(=O)c2cc(OC)cc(OC)c2)n(C)c(=O)n3C)c1` [Example 166, 3,5-dimethoxy-N-(6-(3-(3-methoxypropoxy)-5-propoxyphenoxy)-1,3-dimethyl-2-oxo-2,3-dihydro-1H-benzo[d]imidazol-5-yl)benzenesulfonamide] has an IC50 of 100 to 1000 nM.
With `Cc1c(S(=O)(=O)Nc2cc3c(cc2Oc2cccc(OCC4CC4)c2)n(C)c(=O)n3C)cnn1C` [Example 102, N-(6-(3-(cyclopropylmethoxy)phenoxy)-1,3-dimethyl-2-oxo-2,3-dihydro-1H-benzo[d]imidazol-5-yl)-1,5-dimethyl-1H-pyrazole-4-sulfonamide] the IC50 was 10 to 100 nM.
`CCCOc1cc(OCCCOC)cc(Oc2cc3c(cc2NS(=O)(=O)c2cccc4c2OCCO4)n(C)c(=O)n3C)c1` [Example 175, N-(6-(3-(3-methoxypropoxy)-5-propoxyphenoxy)-1,3-dimethyl-2-oxo-2,3-dihydro-1H-benzo[d]imidazol-5-yl)-2,3-dihydrobenzo[b][1,4]dioxine-5-sulfonamide] was tested, and the IC50 was 100 to 1000 nM.
For `Cn1c(=O)n(C)c2cc(Oc3cccc(OCc4ccccc4)c3)c(NS(=O)(=O)c3ccsc3)cc21` [Example 21, N-(6-(3-(benzyloxy)phenoxy)-1,3-dimethyl-2-oxo-2,3-dihydro-1H-benzo[d]imidazol-5-yl)thiophene-3-sulfonamide], the IC50 was > 1000 nM.
For `Cc1c(S(=O)(=O)Nc2cc3c(cc2Oc2cccc(OCc4ccccc4)c2)n(C)c(=O)n3C)cnn1C` [Example 41, N-(6-(3-(benzyloxy)phenoxy)-1,3-dimethyl-2-oxo-2,3-dihydro-1H-benzo[d]imidazol-5-yl)-1,5-dimethyl-1H-pyrazole-4-sulfonamide], the IC50 was 100 to 1000 nM.
